Reference: ChEMBL document CHEMBL5725362, “Long chain base sphingosine kinase inhibitors” (2017)

The compounds below were run against Sphingosine kinase 1 (Homo sapiens, UniProt Q9NYA1) (assay: Scintillation Proximity Assay: SphK activity was measured by a scintillation proximity assay as previously described [1], the disclosure of which is incorporated herein. Briefly, recombinant SphK1 or SphK2 were expressed in Sf9 insect cells, crude homogenates were prepared and incubated in 96 well FlashPlates (Perkin-Elmer) in a buffer containing D-erythro-sphingosine and γ-[33P]ATP. The [33P]S1P …).
Chain of Sphingosine kinase 1 (Q9NYA1 whole entry): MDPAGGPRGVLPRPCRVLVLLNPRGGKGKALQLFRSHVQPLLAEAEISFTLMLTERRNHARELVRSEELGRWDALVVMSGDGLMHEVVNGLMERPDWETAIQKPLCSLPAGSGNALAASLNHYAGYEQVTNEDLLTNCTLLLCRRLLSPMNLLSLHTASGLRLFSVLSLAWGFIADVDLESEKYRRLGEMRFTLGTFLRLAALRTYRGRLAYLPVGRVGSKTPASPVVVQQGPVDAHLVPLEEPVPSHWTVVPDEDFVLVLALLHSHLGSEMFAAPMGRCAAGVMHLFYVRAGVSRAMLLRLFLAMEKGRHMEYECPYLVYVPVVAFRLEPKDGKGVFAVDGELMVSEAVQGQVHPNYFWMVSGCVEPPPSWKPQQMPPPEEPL

Row | SMILES | Ki [nM]
1 | N=C(N)N1CCC[C@H]1c1nc(-c2ccc(CS(=O)(=O)c3ccccc3)cc2)no1 | > 10000
2 | CCCCCCCCCCCc1cc(-c2nnc(C3(C(=N)N)CC3)o2)ccc1F | < 1000
3 | CCCCCCCCCCCc1cc(-c2nnc(C3(C(=N)N)CC3)o2)ccc1C | < 1000
4 | N=C(N)C1(c2nc(-c3cccc(CCc4cccc(CCC5CCCCC5)c4)c3)no2)CC1 | < 1000
5 | CCCCCCCCCCCc1cccc(-c2nnc(C3(C(=N)N)CC3)o2)c1 | < 1000
6 | CCCCCCCCCCc1ccc(/C=C/C2(C(=N)N)CC2)cc1 | > 10000

Further lines, results first:

Row | Ki [nM] | SMILES
7 | < 1000 | CCCCCCCCCCCc1cccc(-c2nc(C3(C(=N)N)CC3)n[nH]2)c1
8 | < 1000 | CCCCCCCCCCCc1ccc(C)c(-c2nnc(C3(C(=N)N)CC3)o2)c1
9 | < 1000 | CCCCCCCCCCCCc1cccc(-c2noc(C3(C(=N)N)CC3)n2)c1
10 | < 1000 | N=C(N)C1(c2nnc(-c3cccc(CCCCCCOCC4CCCCC4)c3)o2)CC1
11 | < 1000 | N=C(N)C1(c2nnc(-c3ccc(CCCCCCCOCC4CCCCC4)cc3)o2)CC1
12 | < 1000 | N=C(N)C1(c2nc(-c3cccc(CCCCCCOCC4CCCCC4)c3)no2)CC1
13 | < 1000 | CCCCCCCCCCCc1ccc(F)c(-c2nnc(C3(C(=N)N)CC3)o2)c1
14 | < 1000 | CCCCCCCCCCCc1cc(-c2noc(C3(C(=N)N)CC3)n2)ccc1C
